Data from patent publication US20180133223A1, “COMBINATION THERAPY WITH A PHOSPHOINOSITIDE 3-KINASE INHIBITOR WITH A ZINC BINDING MOIETY” (Curis, Inc., priority 2016, published 2018).
Marks after values point to notes of the source that are not given here.

Key:
xenograft tumor = experiment: Mouse xenograft tumor models; assay type: in vivo; details: oral or intravenous administration
U2932 = experiment: Tumor growth inhibition, U2932; assay type: in vivo; details: U2932, 100 mg/kg
[1] = Genotoxicity testing, Ames test
SUDHL4 = experiment: SU-DHL-4 diffuse large B cell lymphoma xenograft model; assay type: in vivo, mice; details: SUDHL4, 100 mg/kg
Method: 7- to 9-week-old female immunodeficient Fox Chase SCID Beige mice (15-24 g) obtained from Charles River Laboratories (Wilmington, Mass.) were subcutaneously injected with 5×10^6 SU-DHL-4 cells in a medium suspension of 100 μL cold PBS into the right hind flank region. The treatment was started 29 days following implantation; the average tumor size reached was 126 mm^3. […] Venetoclax (ABT-199) was dissolved in Vehicle 2 (60% phosal 50 PG, 30% PEG 400 and 10% ethanol) to a concentration of 20 mg/mL.
In Groups H to K, Compound 1 and venetoclax were dosed within one minute of each other.
Tumor size was measured twice weekly and the volume was expressed in mm^3 using the formula, V=0.5a×b^2, where a and b were the long and short diameters of the tumor, respectively. The tumor size was then used for the calculation of tumor growth inhibition (TGI)=(1−(T1−T0)/(C1−C0))×100, where C1=mean tumor volume of control mice at time t; T1=mean tumor volume of treated mice at time t; C0=mean tumor volume of control mice at time 0; and T0=mean tumor volume of treated mice at time 0.
(§1) Differences between values obtained in tumors treated with different experimental conditions were determined using the Student's t-test on GraphPad Prism 5.0 (Graphpad Software). p<0.05 was considered as statistically significant.

DOHH2 = DOHH2 diffuse large B cell lymphoma xenograft model; assay type: in vivo, mice; details: DOHH2, 100 mg/kg
Method: Six- to 9-week-old female immunodeficient Fox Chase SCID Beige mice obtained from Charles River Laboratories (Wilmington, Mass.) were subcutaneously injected with 5×10^6 cells in a medium suspension of 100 to 200 μL into the right hind flank region. The treatment was started when the average tumor size reached approximately 100 to 200 mm^3. […] Venetoclax was formulated in 60% phosal 50PG, 30% PEG 400, 10% ethanol (Vehicle 2; Sigma Aldrich, St. Louis, Mo.).
Varying doses of Compound 1 alone, venetoclax alone, the two agents in combination or vehicle were administered orally as per Institutional Animal Care and Use Committee guidelines. […] Venetoclax and Vehicle 2 were dosed daily for 21 days.
Tumor size was measured twice weekly and the volume was expressed in mm^3 using the formula, V=0.5a×b^2, where a and b were the long and short diameters of the tumor, respectively. […]
as §1

[2] = Tumor tissue uptake in xenograft tumor bearing mice; assay type: in vivo; details: oral or intravenous dosing
[3] = test system: HDACs (HeLa cell nuclear extracts); experiment: HDAC activity assay (Biomol Color de Lys), HeLa cell nuclear extracts; assay type: biochemical; details: HeLa cell nuclear extracts as source of HDACs
Method: HDAC inhibitory activity was assessed using the Biomol Color de Lys system (AK-500, Biomol, Plymouth Meeting, Pa.). Briefly, HeLa cell nuclear extracts were used as a source of HDACs. Different concentrations of test compounds were serially diluted in dimethylsulfoxide (DMSO) and added to HeLa cell nuclear extracts in the presence of a colorimetric artificial substrate. Final assay condition contained 50 mM Tris/Cl, pH 8.0, 137 mM NaCl, 2.7 mM KCl and 1 mM MgCl2. Reactions were carried in room temperature (25° C.) for 1 hour before addition of developer for termination. Relative enzyme activity was measured in the WALLAC Victor II 1420 microplate reader as fluorescence intensity (excitation: 350-380 nm; emission: 440-460 nm). Data were analyzed using GraphPad Prism (v4.0a) with a sigmoidal dose response curve fitting for IC50 calculation.

OCILY3 = experiment: Tumor growth inhibition, OCILY3; assay type: in vivo; details: OCILY3, 100 mg/kg
KARPAS422 = experiment: Tumor growth inhibition, KARPAS422; assay type: in vivo; details: KARPAS422, 100 mg/kg
[4] = Oral bioavailability in animal models; assay type: in vivo
WSUDLCL2 = experiment: Tumor growth inhibition, WSUDLCL2; assay type: in vivo; details: WSUDLCL2, 100 mg/kg
U2932 cells = experiment: Cancer cell proliferation / drug combination (CellTiter-Glo); assay type: cell-based; details: U2932, ABC DLBCL, single agent; read-out: ABT-199 EC50
Method: (§2) DLBCL cancer cell lines were purchased from the American Type Culture Collection (Manassas, Va.) and German Collection of Microorganisms and Cell Cultures (Braunschweig, Germany). Cells were maintained according to manufacturing recommendation and incubated at 37° C. in a humidified atmosphere of 5% CO2. Growth media was changed every 2 to 3 days and cells were maintained at a density of 2×10^6 to 4×10^6 cells/mL. Exponentially growing cell cultures were used for all experiments described below.
(§3) Cells were plated at densities of 2×10^4 in 96-well flat-bottomed plates with the recommended culture medium for proliferation assays. Cells were then incubated with indicated compounds at various concentrations for indicated amount of time in culture medium supplemented with 10% (v/v) FBS. Cell viability was assessed using the […]-GLO® Luminescent Cell Viability Assay (Promega, Madison, Wis.). GraphPad Prism 5.0 (Graphpad Software, La Jolla, Calif.) was used for curve fitting and IC50 calculation. Two independent experiments with duplicates were performed for each experiment.
(§4) Drug combination synergy was determined based on dose-effect curves generated as cell proliferation after 24 hours of treatment.

WSUDLCL2 cells = experiment: as above; assay type: cell-based
Method: as §2, §3, §4

SUDHL4 cells = experiment: as above; assay type: cell-based
Method: as §2, §3, §4

KARPAS422 cells = experiment: as above; assay type: cell-based
Method: as §2, §3, §4

DOHH2 cells = experiment: as above; assay type: cell-based; details: DOHH2, Follicular Lymphoma, single agent; read-out: ABT-199 EC50
Method: as §2, §3, §4

OCILY3 cells = experiment: as above; assay type: cell-based
Method: as §2, §3, §4

Molecule: COc1ccc(-c2nc(N3CCOCC3)c3sc(CN(C)c4ncc(C(=O)NO)cn4)cc3n2)cn1 [Compound 1, N-hydroxy-2-(((2-(6-methoxypyridin-3-yl)-4-morpholinothieno[3,2-d]pyrimidin-6-yl)methyl)(methyl)amino)pyrimidine-5-carboxamide]
- antitumor activity (xenograft tumor): substantial antitumor activity
- Compound 1 %TGI (100 mg/kg) (U2932): 97%
- safety profile, genotoxicity (Ames test) [1]: favorable safety profile
- Compound 1 %TGI (100 mg/kg) (SUDHL4): 47%*
- Compound 1 %TGI (100 mg/kg) (DOHH2): 56%
- uptake by the tumor tissue [2]: significant uptake by the tumor tissue
- IC50 [3]: < 0.1 µM
- Compound 1 %TGI (100 mg/kg) (OCILY3): 23%
- Compound 1 %TGI (100 mg/kg) (KARPAS422): 33%
- oral bioavailability [4]: significant oral bioavailability
- Compound 1 %TGI (100 mg/kg) (WSUDLCL2): 69%

Molecule: venetoclax [ABT-199]
- EC50 (U2932 cells): 0.476 µM
- sensitivity of cell line to single agent (WSUDLCL2 cells; WSUDLCL2): refractory
- EC50 (WSUDLCL2 cells; WSUDLCL2, GCB DLBCL, single agent, read-out: ABT-199 EC50): 3.66 µM
- sensitivity of cell line to single agent (SUDHL4 cells; SUDHL4): refractory
- EC50 (SUDHL4 cells; SUDHL4, GBC DLBCL, single agent, read-out: ABT-199 EC50): 2.13 µM
- sensitivity of cell line to single agent (KARPAS422 cells; KARPAS422): refractory
- EC50 (KARPAS422 cells; KARPAS422, Follicular Lymphoma, single agent, read-out: ABT-199 EC50): 15.7 µM
- EC50 (DOHH2 cells): 0.133 µM
- sensitivity of cell line to single agent (OCILY3 cells; OCILY3): refractory
- EC50 (OCILY3 cells; OCILY3, ABC DLBCL, single agent, read-out: ABT-199 EC50): 20 µM
